Test results as given in PubChem BioAssay AID248 (DTP/NCI, 2004).
Inconclusive results and toxic doses are left out. Cut-off read from the data, not from the text of the source: active = T/C of 150% or more; inactive = T/C below 125%.

Test system: L1210 leukemia ip in BDF1 mice, survival T/C
Assay: NCI In Vivo Anticancer Drug Screen. Data for tumor model L1210 Leukemia (intraperitoneal) in B6D2F1 (BDF1) mice
Details: endpoint: mean survival time, higher = longer survival
Method in brief: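 In this screen, tumor-bearing mice given compound are compared to those given vehicle, and their survival values are reported as a treated-to-control quotient.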

[1] = dose: 100.0 mg/kg/injection, schedule: Q01DX009 (ip), vehicle: Klucel (hydroxypropylcellulose) (HPC)
[2] = dose: 200.0 mg/kg/injection, schedule: Q01DX009 (ip), vehicle: Klucel (hydroxypropylcellulose) (HPC)
[3] = dose: 400.0 mg/kg/injection, schedule: Q01DX009 (ip), vehicle: Klucel (hydroxypropylcellulose) (HPC)
[4] = dose: 100.0 mg/kg/injection, schedule: Q04DX003 (ip), vehicle: Klucel (hydroxypropylcellulose) (HPC)
[5] = dose: 200.0 mg/kg/injection, schedule: Q04DX003 (ip), vehicle: Klucel (hydroxypropylcellulose) (HPC)
[6] = dose: 400.0 mg/kg/injection, schedule: Q04DX003 (ip), vehicle: Klucel (hydroxypropylcellulose) (HPC)
[7] = dose: 100.0 mg/kg/injection, schedule: Q04DX003 (ip), vehicle: saline
[8] = dose: 200.0 mg/kg/injection, schedule: Q04DX003 (ip), vehicle: saline
[9] = dose: 400.0 mg/kg/injection, schedule: Q04DX003 (ip), vehicle: saline
[10] = dose: 100.0 mg/kg/injection, schedule: Q01DX001 (ip), vehicle: carboxymethylcellulose (CMC)
[11] = dose: 50.0 mg/kg/injection, schedule: Q01DX009 (ip), vehicle: saline with Tween-80
[12] = dose: 100.0 mg/kg/injection, schedule: Q01DX009 (ip), vehicle: saline with Tween-80
[13] = dose: 200.0 mg/kg/injection, schedule: Q01DX009 (ip), vehicle: saline with Tween-80

Measured: T/C

CC1CCC2(CC1)CCN(CCCN(C)C)CC2
inactive: dose: 15.0 mg/kg/injection, schedule: Q01DX015 (ip), vehicle: saline 102 % of control | dose: 30.0 mg/kg/injection, schedule: Q01DX015 (ip), vehicle: saline 102 % of control | dose: 60.0 mg/kg/injection, schedule: Q01DX015 (ip), vehicle: saline 100 % of control | dose: 120.0 mg/kg/injection, schedule: Q01DX015 (ip), vehicle: saline 104 % of control | dose: 200.0 mg/kg/injection, schedule: Q01DX015 (ip), vehicle: saline 107 % of control

CN(C)C(C)(C)CCCNc1ccnc2cc(Cl)ccc12
inactive: dose: 75.0 mg/kg/injection, schedule: Q01DX001 (ip), vehicle: carboxymethylcellulose (CMC) 100 % of control | dose: 150.0 mg/kg/injection, schedule: Q01DX001 (ip), vehicle: carboxymethylcellulose (CMC) 100 % of control

CC(=O)N(N=O)c1ccc(C)cc1
inactive: dose: 5.0 mg/kg/injection, schedule: Q01DX001 (ip), vehicle: saline 101 % of control | dose: 10.0 mg/kg/injection, schedule: Q01DX001 (ip), vehicle: saline 92 % of control | dose: 20.0 mg/kg/injection, schedule: Q01DX001 (ip), vehicle: saline 92 % of control | dose: 40.0 mg/kg/injection, schedule: Q01DX001 (ip), vehicle: saline 106 % of control

CC(=O)c1cccc(NC(=O)Oc2ccc3c(C)cc(=O)oc3c2)c1
inactive: [1] 98 % of control | [2] 101 % of control | [3] 101 % of control

Cc1ccc([N+](=O)[O-])cc1NC(=O)OCc1ccco1
inactive: [1] 103 % of control | [2] 97 % of control | [3] 94 % of control

O=C(COc1ccc(Cl)cc1Cl)Nc1cc(C(F)(F)F)ccc1Cl
inactive: dose: 50.0 mg/kg/injection, schedule: Q01DX001 (ip), vehicle: other 96 % of control | dose: 100.0 mg/kg/injection, schedule: Q01DX001 (ip), vehicle: other 107 % of control | dose: 100.0 mg/kg/injection, schedule: Q04DX002 (ip), vehicle: gum acacia 118 % of control | dose: 200.0 mg/kg/injection, schedule: Q01DX001 (ip), vehicle: other 89 % of control | dose: 200.0 mg/kg/injection, schedule: Q04DX002 (ip), vehicle: gum acacia 91 % of control | dose: 400.0 mg/kg/injection, schedule: Q01DX001 (ip), vehicle: other 94 % of control | dose: 400.0 mg/kg/injection, schedule: Q04DX002 (ip), vehicle: gum acacia 103 % of control

COC1CCC(NC(=O)NCCCl)CC1 (stereo not given)
inactive: dose: 100.0 mg/kg/injection, schedule: Q01DX001 (ip), vehicle: Klucel (hydroxypropylcellulose) (HPC) 95 % of control | [4] 103 % of control | dose: 200.0 mg/kg/injection, schedule: Q01DX001 (ip), vehicle: Klucel (hydroxypropylcellulose) (HPC) 102 % of control | [5] 97 % of control | dose: 400.0 mg/kg/injection, schedule: Q01DX001 (ip), vehicle: Klucel (hydroxypropylcellulose) (HPC) 95 % of control | [6] 97 % of control

CC1CCC2(OC1)OC1CC3C4CCC5CC(O)C(O)CC5(C)C4CCC3(C)C1C2C (stereo not given)
inactive: dose: 50.0 mg/kg/injection, schedule: Q01DX009 (ip), vehicle: acetone 92 % of control | dose: 100.0 mg/kg/injection, schedule: Q01DX009 (ip), vehicle: acetone 92 % of control | [7] 92 % of control | dose: 200.0 mg/kg/injection, schedule: Q01DX009 (ip), vehicle: acetone 100 % of control | [8] 97 % of control | dose: 400.0 mg/kg/injection, schedule: Q01DX009 (ip), vehicle: acetone 94 % of control | [9] 94 % of control

CC(NC(=O)NCCCl)c1cccc2ccccc12 (stereo not given)
inactive: [4] 102 % of control | [5] 103 % of control | [6] 95 % of control

CCCCCCC(C)NCC(O)COc1cccc(C)c1 (stereo not given)
inactive: dose: 12.5 mg/kg/injection, schedule: Q01DX009 (ip), vehicle: saline with Tween-80 94 % of control | dose: 25.0 mg/kg/injection, schedule: Q01DX009 (ip), vehicle: saline with Tween-80 97 % of control

COc1ccc(Br)cc1/C=N\NS(=O)(=O)c1ccc(C)cc1
inactive: dose: 100.0 mg/kg/injection, schedule: Q01DX009 (ip), vehicle: other 100 % of control | [7] 96 % of control | dose: 200.0 mg/kg/injection, schedule: Q01DX009 (ip), vehicle: other 105 % of control | [8] 96 % of control | dose: 400.0 mg/kg/injection, schedule: Q01DX009 (ip), vehicle: other 114 % of control | [9] 93 % of control

O=C(O)Cc1cccc(=O)n1Cc1ccccc1
inactive: dose: 75.0 mg/kg/injection, schedule: Q04DX003 (ip), vehicle: Klucel (hydroxypropylcellulose) (HPC) 98 % of control | dose: 150.0 mg/kg/injection, schedule: Q04DX003 (ip), vehicle: Klucel (hydroxypropylcellulose) (HPC) 100 % of control | dose: 300.0 mg/kg/injection, schedule: Q04DX003 (ip), vehicle: Klucel (hydroxypropylcellulose) (HPC) 102 % of control

CCOC(=O)NNC(=O)O
inactive: dose: 50.0 mg/kg/injection, schedule: Q01DX001 (ip), vehicle: carboxymethylcellulose (CMC) 108 % of control | [10] 90 % of control

Cc1cc(C)c(C(Cl)(Cl)Cl)c(C)c1Cl
inactive: dose: 22.0 mg/kg/injection, schedule: Q01DX009 (ip), vehicle: saline with Tween-80 119 % of control | dose: 33.0 mg/kg/injection, schedule: Q01DX009 (ip), vehicle: Klucel (hydroxypropylcellulose) (HPC) 113 % of control | dose: 33.0 mg/kg/injection, schedule: Q01DX009 (ip), vehicle: saline with Tween-80 112 % of control | dose: 50.0 mg/kg/injection, schedule: Q01DX009 (ip), vehicle: Klucel (hydroxypropylcellulose) (HPC) 100 % of control | [11] 118 % of control | dose: 75.0 mg/kg/injection, schedule: Q01DX009 (ip), vehicle: Klucel (hydroxypropylcellulose) (HPC) 107 % of control | dose: 75.0 mg/kg/injection, schedule: Q01DX009 (ip), vehicle: saline with Tween-80 113 % of control | [10] 121 % of control | [12] 121 % of control | dose: 100.0 mg/kg/injection, schedule: Q04DX003 (ip), vehicle: saline with Tween-80 120 % of control | dose: 200.0 mg/kg/injection, schedule: Q01DX001 (ip), vehicle: carboxymethylcellulose (CMC) 118 % of control | [13] 103 % of control | dose: 200.0 mg/kg/injection, schedule: Q04DX003 (ip), vehicle: saline with Tween-80 108 % of control | dose: 400.0 mg/kg/injection, schedule: Q01DX001 (ip), vehicle: carboxymethylcellulose (CMC) 121 % of control

CN=C(c1ccc(NC(=O)c2ccc(C(=O)Nc3ccc(C(=NC)N4CCCC4)cc3)cc2)cc1)N1CCCC1
inactive: dose: 0.5 mg/kg/injection, schedule: Q01DX Z (ip), vehicle: water 96 % of control | dose: 1.0 mg/kg/injection, schedule: Q01DX Z (ip), vehicle: water 96 % of control

O=C1Nc2cccc3cc(NCC(O)CCCl)cc1c23 (stereo not given)
inactive: dose: 100.0 mg/kg/injection, schedule: Q01DX001 (ip), vehicle: saline 90 % of control | dose: 200.0 mg/kg/injection, schedule: Q01DX001 (ip), vehicle: saline 89 % of control | dose: 400.0 mg/kg/injection, schedule: Q01DX001 (ip), vehicle: saline 100 % of control

O=C(O)C1CCC(C(=O)O)NC1 (stereo not given)
inactive: [7] 106 % of control | [8] 102 % of control | [9] 101 % of control

CN=C(N)Nc1ccccc1
inactive: [11] 97 % of control | dose: 50.0 mg/kg/injection, schedule: Q01DX009 (ip), vehicle: saline 101 % of control | [12] 90 % of control | dose: 100.0 mg/kg/injection, schedule: Q01DX009 (ip), vehicle: saline 101 % of control | [13] 97 % of control | dose: 200.0 mg/kg/injection, schedule: Q01DX009 (ip), vehicle: saline 101 % of control

CCOC(=N)Cc1ccccc1
inactive: dose: 12.5 mg/kg/injection, schedule: Q04DX002 (ip), vehicle: Klucel (hydroxypropylcellulose) (HPC) 100 % of control | dose: 25.0 mg/kg/injection, schedule: Q04DX002 (ip), vehicle: Klucel (hydroxypropylcellulose) (HPC) 103 % of control | dose: 50.0 mg/kg/injection, schedule: Q04DX002 (ip), vehicle: Klucel (hydroxypropylcellulose) (HPC) 106 % of control | dose: 100.0 mg/kg/injection, schedule: Q04DX002 (ip), vehicle: Klucel (hydroxypropylcellulose) (HPC) 110 % of control
